Data reported in a compilation of properties of binary mixtures (doi:10.1021/acs.jced.0c00298).

Test: xn = mol fraction of the nth substance listed
Settings: 100 kPa

CO + CC[n+]1ccn(CCOC)c1.O=S(=O)([N-]S(=O)(=O)C(F)(F)F)C(F)(F)F
x2 = 0
Settings	viscosity [mPa·s]
288.15 K	0.623
293.15 K	0.58
298.15 K	0.541
303.15 K	0.505

CC[n+]1ccn(CCOC)c1.O=S(=O)([N-]S(=O)(=O)C(F)(F)F)C(F)(F)F + CO
viscosity [mPa·s]
Settings	x1 = 0.1	x1 = 0.1997	x1 = 0.2999	x1 = 0.3966	x1 = 0.5	x1 = 0.5984	x1 = 0.6953	x1 = 0.7934	x1 = 0.9016	x1 = 1
288.15 K	1.982	4.2	–	11.27	–	–	30.4	–	47.6	54.62
293.15 K	1.791	3.71	6.22	9.6	13.37	18.95	25.01	30.37	38.28	–
298.15 K	–	3.297	–	8.27	11.39	16.24	20.9	25.15	31.34	35.49
303.15 K	1.486	2.951	–	7.21	–	13.93	17.85	21.12	26.04	–
308.15 K	1.362	–	–	–	8.55	–	15.37	–	21.94	24.58
313.15 K	1.252	2.408	3.827	5.611	7.51	–	–	–	18.75	20.86
318.15 K	1.155	2.193	–	5.009	6.66	9.11	11.53	13.65	16.34	18.03
